From patent US5733913A, “6-Aryl pyrido[2,3-d] pyrimidines and naphthyridines for inhibiting protein tyrosine kinase mediated cellular proliferation” (priority 1995, dated 1998)
Read-outs that look alike come from different tables or passages of the source.

Key:
[1] = system: Rat aorta smooth muscle cells (RASMC); assay: [3H]-Thymidine incorporation assay in RASMC; type: cell-based; settings: read-out: Inhibition of Growth Factor Stimulated Uptake of [3H]-thymidine (IC50)
Description: Cell Culture Rat aorta smooth muscle cells (RASMC) were isolated from the thoracic aorta of rats and explanted according to the method of Ross, J. Cell. Biol., 30:172-186 (1971). Cells were grown in Dulbecco's modified Eagle's medium (DMEM, Gibco) containing 10% fetal calf serum (FBS, Hyclone, Logan, Utah), 1% glutamine (Gibco) and 1% penicillin/streptomycin (Gibco). Cells were identified as smooth muscle cells by their "hill and valley" growth pattern and by fluorescent staining with a monoclonal antibody specific for SMC […] (Sigma). RASMC were used between passages 5 and 20 for all experiments. Test compounds were prepared in dimethylsulfoxide (DMSO) in order to achieve consistency in the vehicle and to ensure compound solubility. Appropriate DMSO controls were simultaneously evaluated with the test compounds. […] RASMC were plated into a 24-well plate (30,000 cells/well) in DMEM with 10% FBS. After 4 days, cells reached confluence and were made quiescent by incubation in DMEM/F12 medium (Gibco) containing 0.2% FBS for another 2 days. […] […] The acid-insoluble fraction was lysed in 0.75 mL 0.25N NaOH and the radioactivity determined by liquid scintillation counting. IC50 values were determined graphically.

PDGF receptor = PDGF receptor autophosphorylation in RASMC; type: cell-based, rat; settings: PDGF-BB 30 ng/mL, read-out: Inhibition of PDGF Stimulated Receptor Auto Phosphorylation (IC50)
Description: Rat aorta smooth muscle cells (RASMC) were isolated from the thoracic aorta of rats and explanted according to the method of Ross, J. Cell. […] Cells were grown in Dulbecco's modified Eagle's medium (DMEM, Gibco) containing 10% fetal calf serum (FBS, Hyclone, Logan, Utah), 1% glutamine (Gibco) and 1% penicillin/streptomycin (Gibco). Cells were identified as smooth muscle cells by their "hill and valley" growth pattern and by fluorescent staining with a monoclonal antibody specific for SMC μ-actin (Sigma). RASMC were used between passages 5 and 20 for all experiments. Test compounds were prepared in dimethylsulfoxide (DMSO) in order to achieve consistency in the vehicle and to ensure compound solubility. Appropriate DMSO controls were simultaneously evaluated with the test compounds.
PDGF Receptor Autophosphorylation
RASMC were grown to confluency in 100 mm dishes. Growth medium was removed and replaced with serum-free medium and cells were incubated at 37° C. for an additional 24 hours. Test compounds were then added directly to the medium and cells incubated for an additional 2 hours. After 2 hours, PDGF-BB was added at a final concentration of 30 ng/mL for 5 minutes at 37° C. to stimulated autophosphorylation of the PDGF receptor. Following growth factor treatment, the medium was removed, and cells were washed with cold phosphate-buffered saline and immediately lysed with 1 mL of lysis buffer (50 mM HEPES[pH 7.5], 150 mM NaCl, 10% glycerol, 1% Triton X-100, 1 mM EDTA, 1 mMEGTA, 50 mM NaF, 1 mM sodium orthovanadate, 30 mM p-nitrophenyl phosphate, 10 mM sodium pyrophosphate, 1 mM phenylmethyl sulfonyl fluoride, 10 μg/mL aprotinin, and 10 μg/mL leupeptin). Lysates were centrifuged at 10,000×g for 10 minutes. […] Following the incubation, protein-A-sepharose beads were added for 2 hours with continuous mixing, and immune complexes bound to the beads washed 4 times with 1 mL lysis wash buffer. Immune complexes were solubilized in 30 μL of Laemmli sample buffer and electrophoresed in 4-20% SDS polyacrylamide gels. Following electrophoresis, separated proteins were transferred to nitrocellulose and immunoblotted with anti-phosphotyrosine antiserum. […] IC50 values were generated from the densitometric data.

[2] = molecular target: T1, Human EGF receptor tyrosine kinase (Homo sapiens, UniProt P00533); assay: EGF receptor tyrosine kinase assay; type: biochemical; settings: for IC50: read-out: Inhibition of Protein Tyrosine Kinases, EGF, IC50; for inhibition at 50 µM: read-out: Inhibition of Protein Tyrosine Kinases, EGF, % Inhibition
T1 construct: isolated from A431 epidermoid carcinoma cells; endogenous in cells; host or cells: A431 epidermoid carcinoma cells (Triton lysate, wheat germ agglutinin eluate)
T1 sequence (P00533 25-1210): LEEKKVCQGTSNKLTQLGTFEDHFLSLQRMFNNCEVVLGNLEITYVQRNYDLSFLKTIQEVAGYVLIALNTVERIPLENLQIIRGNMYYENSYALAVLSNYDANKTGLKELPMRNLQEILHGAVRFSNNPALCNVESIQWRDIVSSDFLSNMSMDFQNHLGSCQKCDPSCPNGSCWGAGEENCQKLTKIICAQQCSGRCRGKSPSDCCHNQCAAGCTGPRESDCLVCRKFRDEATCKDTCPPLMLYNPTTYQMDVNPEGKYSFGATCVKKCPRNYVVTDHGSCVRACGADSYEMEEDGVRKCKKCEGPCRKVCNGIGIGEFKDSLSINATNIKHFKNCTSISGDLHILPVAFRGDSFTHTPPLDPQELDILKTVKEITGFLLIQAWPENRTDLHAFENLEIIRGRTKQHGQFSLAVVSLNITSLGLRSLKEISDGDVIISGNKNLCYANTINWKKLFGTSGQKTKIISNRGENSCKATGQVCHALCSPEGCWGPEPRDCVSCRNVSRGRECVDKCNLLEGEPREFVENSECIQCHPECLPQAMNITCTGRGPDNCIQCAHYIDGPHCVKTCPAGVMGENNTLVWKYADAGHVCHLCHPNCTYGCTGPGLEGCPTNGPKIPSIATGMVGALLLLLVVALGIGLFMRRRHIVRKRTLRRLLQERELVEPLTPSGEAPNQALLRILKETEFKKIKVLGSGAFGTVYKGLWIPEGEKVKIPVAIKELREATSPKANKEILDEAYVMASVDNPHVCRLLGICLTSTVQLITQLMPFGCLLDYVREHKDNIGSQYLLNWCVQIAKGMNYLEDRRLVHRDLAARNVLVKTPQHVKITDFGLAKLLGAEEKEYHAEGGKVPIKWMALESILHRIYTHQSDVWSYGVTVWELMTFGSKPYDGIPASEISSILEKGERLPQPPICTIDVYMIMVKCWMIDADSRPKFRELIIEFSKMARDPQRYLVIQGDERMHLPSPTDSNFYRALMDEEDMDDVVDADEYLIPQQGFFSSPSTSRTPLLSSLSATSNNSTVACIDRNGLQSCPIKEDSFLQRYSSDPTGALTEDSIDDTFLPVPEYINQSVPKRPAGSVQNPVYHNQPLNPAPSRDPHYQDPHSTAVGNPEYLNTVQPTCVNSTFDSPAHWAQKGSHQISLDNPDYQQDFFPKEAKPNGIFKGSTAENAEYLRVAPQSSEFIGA
Description: Purification of Epidermal Growth Factor Receptor Tyrosine Kinase
Human EGF receptor tyrosine kinase was isolated from A431 epidermoid carcinoma cells by the following methods. Cells were grown in roller bottles in 50% Delbuco's Modified Eagle and 50% HAM F-12 nutrient media (Gibco) containing 10% fetal calf serum. Approximately 10^9 cells were lysed in two volumes of buffer containing 20 mM 2-(4N-[2-hydroxyethyl]piperazin-1-yl)ethanesulfonic acid, pH 7.4, 5 mM ethylene glycol bis(2-aminoethyl ether)N,N,N',N'-tetraacetic acid, 1% Triton X-100, 10% glycerol, 0.1 mM sodium orthovanadate, 5 mM sodium fluoride, 4 mM pyrophosphate, 4 mM benzamide, 1 mM dithiothreitol, 80 μg/mL aprotinin, 40 μg/mL leupeptin, and 1 mM phenylmethylsulfonyl fluoride. After centrifugation at 25,000×g for 10 minutes, the supernatant was equilibrated for 2 hours at 4° C. with 10 mL of wheat germ agglutinin sepharose that was previously equilibrated with 50 mM Hepes, 10% glycerol, 0.1% Triton X-100 and 150 mM NaCl, pH 7.5, (equilibration buffer). Contaminating proteins were washed from the resin with 1M NaCl in equilibration buffer, and the enzyme was eluted with 0.5M N-acetyl-1-D-glucosamine in equilibration buffer.
Determination of IC50 Values
The reaction was terminated by the addition of 2 mL of 75 mM phosphoric acid and passed through a 2.5-cm phosphocellulose filter disc to bind the peptide. The filter was washed five times with 75 mM phosphoric acid and placed in a vial along with 5 mL of scintillation fluid (Ready gel Beckman).

[3] = molecular target: T2, mouse PDGF-β receptor tyrosine kinase (Mus musculus, UniProt P05622); assay: PDGF receptor tyrosine kinase assay; type: biochemical; settings: for IC50: read-out: Inhibition of Protein Tyrosine Kinases, PDGF, IC50
T2 construct: a fragment of DNA that codes for the intracellular tyrosine kinase domain; made in house; host or cells: Sf9 insect cells (baculovirus), cell lysate
T2 sequence (P05622 599-961 limits assumed): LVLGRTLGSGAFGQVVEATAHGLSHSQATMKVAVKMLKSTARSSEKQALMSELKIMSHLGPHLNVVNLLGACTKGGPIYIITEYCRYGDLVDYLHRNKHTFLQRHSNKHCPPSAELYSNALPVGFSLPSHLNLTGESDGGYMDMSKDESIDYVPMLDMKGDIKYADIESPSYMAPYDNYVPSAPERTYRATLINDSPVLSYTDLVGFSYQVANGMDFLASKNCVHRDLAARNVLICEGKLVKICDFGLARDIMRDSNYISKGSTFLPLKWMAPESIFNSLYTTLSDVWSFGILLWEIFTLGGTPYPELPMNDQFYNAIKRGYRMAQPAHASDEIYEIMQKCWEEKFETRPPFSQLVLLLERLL
Method in brief: (§1)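 Intracellular kinase domains expressed in baculovirus-infected SF9 cells; crude lysate used as enzyme. Inhibitor preincubated 10 min at 25 °C with lysate in pH 7.0 Hepes buffer with 10 mM MnCl2 and poly(Glu-Tyr) 4:1, then γ-32P-ATP (50 μM ATP) added for 10 min at 25 °C. TCA-precipitated 32P on filters counted, no-enzyme background subtracted.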

C-src kinase = molecular target: T3, C-src kinase (Homo sapiens, UniProt P12931); assay: C-src kinase assay; type: biochemical; settings: for IC50: read-out: Inhibition of Protein Tyrosine Kinases, C-src, IC50
T3 construct: made in house; host or cells: baculovirus-infected insect cells
T3 sequence (P12931 whole entry): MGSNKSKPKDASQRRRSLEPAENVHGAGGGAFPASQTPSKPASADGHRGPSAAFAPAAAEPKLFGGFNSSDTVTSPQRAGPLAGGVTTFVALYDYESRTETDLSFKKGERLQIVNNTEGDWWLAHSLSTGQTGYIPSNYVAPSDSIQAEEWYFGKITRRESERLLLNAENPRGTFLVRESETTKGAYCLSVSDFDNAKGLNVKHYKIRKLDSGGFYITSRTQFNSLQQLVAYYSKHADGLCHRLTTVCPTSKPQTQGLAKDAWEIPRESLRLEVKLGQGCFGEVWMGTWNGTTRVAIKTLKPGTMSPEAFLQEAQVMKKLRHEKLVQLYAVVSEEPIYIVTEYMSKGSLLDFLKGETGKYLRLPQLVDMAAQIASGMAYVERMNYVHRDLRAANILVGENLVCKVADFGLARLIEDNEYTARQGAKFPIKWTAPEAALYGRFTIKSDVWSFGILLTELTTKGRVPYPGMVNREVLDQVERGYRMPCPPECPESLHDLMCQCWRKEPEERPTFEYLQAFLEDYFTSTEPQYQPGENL
Method in brief: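 Baculovirus-expressed c-src immunopurified on antibody-coated latex beads, assayed in 40 mM Tris pH 7.5, 5 mM MgCl2 with poly GluTyr substrate and 5 μM ATP plus 32P-ATP. Reaction 10 min at room temperature, TCA-quenched, filtered; incorporated label counted by scintillation.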

[4] = molecular target: T4, human FGF-1 (flg) receptor tyrosine kinase (Homo sapiens, UniProt P11362); assay: FGF receptor tyrosine kinase assay; type: biochemical; settings: read-out: Inhibition of Protein Tyrosine Kinases, FGF, IC50
T4 construct: a fragment of DNA that codes for the intracellular tyrosine kinase domain; made in house; host or cells: Sf9 insect cells (baculovirus), cell lysate
T4 sequence (P11362 478-767 limits assumed): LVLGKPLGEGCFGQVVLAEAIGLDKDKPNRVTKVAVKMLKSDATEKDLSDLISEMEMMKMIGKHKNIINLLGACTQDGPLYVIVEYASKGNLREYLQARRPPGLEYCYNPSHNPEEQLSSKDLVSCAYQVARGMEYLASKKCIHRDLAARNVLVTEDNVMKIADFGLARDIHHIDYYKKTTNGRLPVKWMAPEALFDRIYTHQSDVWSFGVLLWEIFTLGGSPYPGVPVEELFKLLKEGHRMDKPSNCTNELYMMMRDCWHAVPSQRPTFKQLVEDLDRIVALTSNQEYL
Method in brief: as §1

V-src kinase = V-src kinase assay; type: biochemical; settings: at 50 μM
Description: V-src and C-src Kinase Assays
V-src or C-src kinase is purified from baculovirus infected insect cell lysates using an antipeptide monoclonal antibody directed against the N-terminal 2-17 amino acids. The antibody, covalently linked to 0.65-μm latex beads, is added to a suspension of insect cell lysis buffer comprised of 150 mM NaCl, 50 mM Tris pH 7.5, 1 mM DTT, 1% NP-40, 2 mM EGTA, 1 mM sodium vanadate, 1 mM PMSF, 1 μg/mL each of leupeptin, pepstatin, and aprotinin. Insect cell lysate containing either the c-src or v-src protein is incubated with these beads for 3-4 hours at 4° C. with rotation. At the end of the lysate incubation, the beads are rinsed 3 times in lysis buffer, resuspended in lysis buffer containing 10% glycerol, and frozen. These latex beads are thawed, rinsed three times in assay buffer which is comprised of 40 mM tris pH 7.5, 5 mM MgCl2, and suspended in the same buffer. In a Millipore 96-well plate with a 0.65 μm polyvinylidine membrane bottom are added the reaction components: 10-μL v-src or c-src beads, 10 μL of 2.5 mg/mL poly GluTyr substrate, 5 μM ATP containing 0.2 μCi labeled ^32 P-ATP, 5μL DMSO containing inhibitors or as a solvent control, and buffer to make the final volume 125 μL. The reaction is started at room temperature by addition of the ATP and quenched 10 minutes later by the addition of 125 μL of 30% TCA, 0.1M sodium pyrophosphate for 5 minutes on ice. The plate is then filtered and the wells washed with two 250-μL aliquots of 15% TCA, 0.1M pyrophosphate. The filters are punched, counted in a liquid scintillation counter, and the data examined for inhibitory activity in comparison to a known inhibitor such as erbstatin. The method is described more fully in J. Med. Chem., 37:598-609 (1994).

Streptococcus pneumoniae = assay: standard in vitro assays of antibacterial activity; type: cell-based; settings: Gram+ bacterial strain
From the text: These compounds are potent inhibitors of one or more of the protein kinases, PDGF, FGF, EGF, V-src, and C-src. The invention compounds are thus useful in treating atherosclerosis, restenosis, and cancer. Specific tumors to be treated with the compounds include small-cell lung carcinoma such as that described in An. Rev. Respir. Dis., 142:554-556 (1990); human breast cancer as described in Cancer Research, 52:4773-4778 (1992); low grade human bladder carcinomas of the type described in Cancer Research, 52:1457-1462 (1992); human colorectal cancer as discussed in J. Clin. Invest., 91:53-60 (1993); and in J. Surg. Res., 54:293-294 (1993). The compounds also are useful as antibiotics against bacteria such as Streptococcus pneumoniae. […] The compounds additionally are useful as herbicides against a wide variety of undesirable plants such as broad leaf weeds and grasses.

Row | Compound | IC50 ([1]; FGF stimulated) [nM] | IC50 ([1]; PDGF stimulated) [nM] | IC50 (PDGF receptor) [nM] | IC50 [2] [nM] | IC50 [3] [nM] | IC50 (C-src kinase) [nM] | IC50 [4] [nM] | Inhibition of Protein Tyrosine Kinases, V-src, % Inhibition (V-src kinase) [%] | activity against Streptococcus pneumoniae (Streptococcus pneumoniae) | inhibition at 50 µM [2] [%] | inhibition at 50 µM ([3]; at 50 μM, read-out: Inhibition of Protein Tyrosine Kinases, PDGF, % Inhibition) [%] | inhibition at 50 µM (C-src kinase; at 50 μM, read-out: Inhibition of Protein Tyrosine Kinases, C-src, % Inhibition) [%]
1 | CN1CCN(CCCNc2ncc3cc(-c4c(Cl)cccc4Cl)c(NC(=O)NC(C)(C)C)nc3n2)CC1 [Example 52, 1-tert-Butyl-3-{6-(2,6-dichlorophenyl)-2-[3-(4-methyl-piperazin-1-yl)-propylamino]-pyrido[2,3-d]pyrimidin-7-yl}-urea] | 400 | 450 | 241 | – | – | – | – | – | – | – | – | –
2 | CCNC(=O)Nc1nc2nc(NCCCCN(CC)CC)ncc2cc1-c1c(Cl)cccc1Cl [Example 124, 1-[6-(2,6-Dichlorophenyl)-2-(4-diethylamino-butyl-amino)-pyrido[2,3-d]pyrimidin-7-yl]-3-ethyl-urea] | 930 | 550 | 245 | – | – | – | – | – | – | – | – | –
3 | CCN(CC)CCCNc1ncc2cc(-c3c(Cl)cccc3Cl)c(NC(=O)NC(C)(C)C)nc2n1 [Example 21, 1-tert-Butyl-3-[6-(2,6-dichlorophenyl)-2-(3-diethylamino-propylamino)-pyrido[2,3-d]pyrimidin-7-yl]-urea] | – | – | 1800 | 6970 | 660 | 73 | 82.4 | 49.4 | – | – | – | –
4 | Nc1cc2nc(N)c(-c3c(Cl)cccc3Cl)cc2cn1 [Example 18, 3-(2,6-Dichlorophenyl)-[1,6]-naphthyridine-2,7-diamine] | – | – | – | 18200 | 21300 | 514 | 1190 | 21.4 | exhibited activity | – | – | –
5 | Cc1ccccc1-c1cc2cnc(N)cc2nc1N [Example 16, 3-o-Tolyl-[1,6]naphthyridine-2,7-diamine] | – | – | – | 7080 | 10700 | 1380 | 9210 | 10.3 | – | – | – | –
6 | CCNC(=O)Nc1nc2nc(N)ncc2cc1-c1c(Cl)cccc1Cl [Example 22, 1-[2-Amino-6-(2,6-dichlorophenyl)-pyrido[2,3-d]pyrimidin-7-yl]-3-ethylurea] | – | – | 3730 | – | 1300 | 77 | 128 | 46.9 | – | 90.4 | – | –
7 | CCCCNc1nc2nc(N)ncc2cc1-c1ccccc1 [Example 9, N^7 -Butyl-6-phenyl-pyrido[2,3-d]pyrimidine-2,7-diamine] | – | – | – | – | 25100 | 18300 | 10600 | – | exhibited activity | – | – | –
8 | Cc1ccccc1-c1cc2cnc(N)nc2nc1NC(=O)NC(C)(C)C [Example 5, 1-[2-Amino-6-o-tolyl-pyrido[2,3-d]pyrimidin-7-yl]-3-tert-butylurea] | – | – | – | 928 | 466 | 407 | 1400 | 23.3 | – | – | – | –
9 | CCCCNC(=O)Nc1ncc2cc(-c3c(Cl)cccc3Cl)c(NC(=O)NCCCC)nc2n1 [Example 25, 1-Butyl-3-[7-(3-butyl-ureido)-6-(2,6-dichlorophenyl)-pyrido[2,3-d]pyrimidin-2-yl]-urea] | – | – | – | – | 6040 | 207 | 11800 | 0.0 | – | 57.5 | – | –
10 | CC(C)(C)NC(=O)Nc1nc2nc(N)ncc2cc1-c1c(Cl)cccc1Cl [Example 3, 1-[2-Amino-6-(2,6-dichlorophenyl)-pyrido[2,3-d]pyrimidin-7-yl]-3-tert-butylurea] | 900 | 2700 | 970 | – | 1250 | – | 140 | 46.8 | – | – | – | –
11 | CNc1ncc2cc(-c3ccccc3)c(NC)nc2n1 [Example 19, N^2,N^7 -Dimethyl-6-phenyl-pyrido[2,3-d]pyrimidine-2,7-diamine] | – | – | – | – | – | – | 16900 | 5.2 | – | 26.1 | 47.7 | 52.8
12 | CCN(CC)CCCCNc1ncc2cc(-c3c(Cl)cccc3Cl)c(NC(=O)NC(C)(C)C)nc2n1 [Example 123, 1-tert-Butyl-3-[6-(2,6-dichlorophenyl)-2-(4-diethyl-amino-butylamino)-pyrido[2,3-d]pyrimidin-7-yl]-urea] | 320 | < 300 | 296 | – | – | 29 | – | – | – | – | – | –
13 | Cc1cccc(C)c1-c1cc2cnc(N)nc2nc1NC(=O)NC(C)(C)C [Example 6, 1-[2-Amino-6-(2,6-dimethylphenyl)-pyrido[2,3-d]pyrimidin-7-yl]-3-tert-butylurea] | – | – | 350 | 457 | – | – | 397 | 39.8 | – | – | – | –
